In patent publication US12180193B2, “Accelerating fibrosarcoma protein degrading compounds and associated methods of use” (Arvinas Operations, Inc., priority 2020, dated 2024):

Assays:
BRAF V600E = biological target: T1, BRAF V600E (Homo sapiens, UniProt P15056, V600E); experiment: Cellular assay of target protein degradation, T-Rex 293 cells stably transfected with HA-BRAF_V600E (HA immunofluorescence, high content imaging); assay type: cell-based; settings: T-Rex 293 HA-BRAF V600E; for DC50: half maximal degradation, read-out: BRaf V600E DC50; for Dmax: maximum degradation observed
T1 construct: expressed in transfected cells
Outline: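 Degradation of the HA-tagged construct is measured after 24 h treatment at 37 °C across 1 μM to 0.1 nM in 0.1% DMSO, in doxycycline-induced (1 ng/mL) cells. DC50 and Dmax come from HA fluorescence imaging.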

BRAF G466V = biological target: T2, BRAF G466V (Homo sapiens, UniProt P15056, G466V); experiment: Cellular assay of target protein degradation, T-Rex 293 cells stably transfected with HA-BRAF G466V (HA immunofluorescence, high content imaging); assay type: cell-based; settings: T-Rex 293 HA-BRAF G466V; for DC50: half maximal degradation, read-out: BRaf G466V DC50; for Dmax: maximum degradation observed
T2 construct: expressed in transfected cells
Outline: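 Dose range spans 30 nM to 3 pM (0.1% DMSO) over 24 hours at 37° C, in cells induced with 0.75 ng/mL doxycycline. Fixed cells are probed with anti-HA antibody overnight at 4° C, then imaged; half-maximal degradation and maximum degradation are derived.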

T1 sequence (P15056 whole entry V600E): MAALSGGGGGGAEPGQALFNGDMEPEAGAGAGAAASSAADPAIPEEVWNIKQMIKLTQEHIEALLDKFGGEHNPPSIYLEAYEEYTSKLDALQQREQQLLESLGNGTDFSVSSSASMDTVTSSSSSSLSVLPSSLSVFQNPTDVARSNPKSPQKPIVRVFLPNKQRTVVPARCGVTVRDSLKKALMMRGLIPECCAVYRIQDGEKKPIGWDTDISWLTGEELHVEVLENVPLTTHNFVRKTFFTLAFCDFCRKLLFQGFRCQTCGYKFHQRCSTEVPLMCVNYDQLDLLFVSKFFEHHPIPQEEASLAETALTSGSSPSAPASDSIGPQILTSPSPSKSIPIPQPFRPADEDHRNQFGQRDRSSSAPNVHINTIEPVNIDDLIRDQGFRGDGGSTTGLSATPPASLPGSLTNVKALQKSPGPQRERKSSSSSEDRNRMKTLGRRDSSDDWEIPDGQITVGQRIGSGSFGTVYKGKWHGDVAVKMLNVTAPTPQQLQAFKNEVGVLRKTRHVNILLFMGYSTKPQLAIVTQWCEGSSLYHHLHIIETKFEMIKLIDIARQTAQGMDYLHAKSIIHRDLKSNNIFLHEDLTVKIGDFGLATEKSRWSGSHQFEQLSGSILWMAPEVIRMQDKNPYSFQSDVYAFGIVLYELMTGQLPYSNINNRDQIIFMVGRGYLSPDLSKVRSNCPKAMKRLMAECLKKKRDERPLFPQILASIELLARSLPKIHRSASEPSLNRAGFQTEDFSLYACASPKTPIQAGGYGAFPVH
T2 sequence (P15056 whole entry G466V): as the sequence (P15056 whole entry V600E) above, with G466V, E600V counted along it

Compound | DC50 (BRAF V600E) [nM] | Dmax (BRAF V600E) [%] | DC50 (BRAF G466V) [nM] | Dmax (BRAF G466V) [%]
COc1c(NS(=O)(=O)N2CC[C@@H](F)C2)ccc(F)c1C(=O)c1c[nH]c2ncc(-c3ccc(N4CCC(CN5CCC(c6ccc7c(c6)CN(C6CCC(=O)NC6=O)C7=O)CC5)CC4)cc3)cc12 (stereo partly drawn) [Compound 283, (3R)-N-[3-(5-{4-[4-({4-[2-(2,6-dioxopiperidin-3-yl)-1-oxo-2,3-dihydro-1H-isoindol-5-yl]piperidin-1-yl}methyl)piperidin-1-yl]phenyl}-1H-pyrrolo[2,3-b]pyridine-3-carbonyl)-4-fluoro-2-methoxyphenyl]-3-fluoropyrrolidine-1-sulfonamide] | 5 to 50 | 35 to 70 | 1 to 10 | > 70
CCCS(=O)(=O)Nc1ccc(F)c(C(=O)c2c[nH]c3ncc(-c4ccc(N5CCC(CN6CCC(c7ccc8c(c7)CN([C@H]7CCC(=O)NC7=O)C8=O)CC6)CC5)cc4)cc23)c1F [Compound 234, N-{3-[5-(4-{4-[(4-{2-[(3S)-2,6-dioxopiperidin-3-yl]-1-oxo-2,3-dihydro-1H-isoindol-5-yl}piperidin-1-yl)methyl]piperidin-1-yl}phenyl)-1H-pyrrolo[2,3-b]pyridine-3-carbonyl]-2,4-difluorophenyl}propane-1-sulfonamide] | 5 to 50 | 35 to 70 | < 1 | > 70
O=C1CC[C@@H](NC(=O)N2CCCc3c(N4CC5(CN(CCc6ccc(-c7cnc8[nH]cc(C(=O)c9c(F)ccc(NS(=O)(=O)N%10CC[C@@H](F)C%10)c9F)c8c7)cc6)C5)C4)ccnc32)C(=O)N1 [Compound 380, 5-{6-[2-(4-{3-[2,6-difluoro-3-({[(3R)-3-fluoropyrrolidin-1-yl]sulfonyl}amino)benzoyl]-1H-pyrrolo[2,3-b]pyridin-5-yl}phenyl)ethyl]-2,6-diazaspiro[3.3]heptan-2-yl}-N-[(3R)-2,6-dioxopiperidin-3-yl]-1,2,3,4-tetrahydro-1,8-naphthyridine-1-carboxamide] | > 500 | – | 1 to 10 | < 35

Now from value to compound:

DC50 (BRAF V600E) [nM] | Dmax (BRAF V600E) [%] | DC50 (BRAF G466V) [nM] | Dmax (BRAF G466V) [%] | Compound
5 to 50 | 35 to 70 | < 1 | 35 to 70 | COc1cc(N2CC(CN3CCN(c4ccc(-c5cnc6[nH]cc(C(=O)c7c(F)ccc(NS(=O)(=O)N8CC[C@@H](F)C8)c7F)c6c5)cc4)CC3)C2)cc2c1C(=O)N(C1CCC(=O)NC1=O)C2 (stereo partly drawn) [Compound 70, (3R)-N-[3-(5-{4-[4-({1-[2-(2,6-dioxopiperidin-3-yl)-7-methoxy-1-oxo-2,3-dihydro-1H-isoindol-5-yl]azetidin-3-yl}methyl)piperazin-1-yl]phenyl}-1H-pyrrolo[2,3-b]pyridine-3-carbonyl)-2,4-difluorophenyl]-3-fluoropyrrolidine-1-sulfonamide]
> 500 | – | 10 to 30 | 35 to 70 | O=C1CCC(N2Cc3cc(N4CC5(CC(CN6CCCc7cc(-c8cnc9[nH]cc(C(=O)c%10c(F)ccc(NS(=O)(=O)N%11CC[C@@H](F)C%11)c%10F)c9c8)ccc76)C5)C4)ccc3C2=O)C(=O)N1 (stereo partly drawn) [Compound 47, (3R)-N-(3-{5-[1-({2-[2-(2,6-dioxopiperidin-3-yl)-1-oxo-2,3-dihydro-1H-isoindol-5-yl]-2-azaspiro[3.3]heptan-6-yl}methyl)-1,2,3,4-tetrahydroquinolin-6-yl]-1H-pyrrolo[2,3-b]pyridine-3-carbonyl}-2,4-difluorophenyl)-3-fluoropyrrolidine-1-sulfonamide]
5 to 50 | 35 to 70 | 1 to 10 | 35 to 70 | O=C1CCC(N2Cc3cc(N4CC5(CC(Oc6ccc(-c7cnc8[nH]cc(C(=O)c9c(F)ccc(NS(=O)(=O)N%10CC[C@@H](F)C%10)c9F)c8c7)cc6)C5)C4)ccc3C2=O)C(=O)N1 (stereo partly drawn) [Compound 1, (3R)-N-(3-{5-[4-({2-[2-(2,6-dioxopiperidin-3-yl)-1-oxo-2,3-dihydro-1H-isoindol-5-yl]-2-azaspiro[3.3]heptan-6-yl}oxy)phenyl]-1H-pyrrolo[2,3-b]pyridine-3-carbonyl}-2,4-difluorophenyl)-3-fluoropyrrolidine-1-sulfonamide]
